Laboratory results taken from US5312919A, “Photooxidation products and derivatives thereof of merocyanine-540, their preparation and uses” (priority 1992, dated 1994).
Where two headings read alike, the source gives them in different places.

Key:
[1] = test system: human Burkitt lymphoma Daudi cells; test: Cytotoxic effects on human Burkitt lymphoma Daudi cells (MTT assay); format: cell-based
Method: Human Burkitt Lymphoma Daudi cells (1×10^6 cells/ml) were treated with different concentrations of Merodantoin. After overnight incubation at 37° C., the tumor cells kill was determined by MTT assay.
Human Burkitt Lymphoma Daudi cells (1×10^6 cells/ml) were treated with different concentrations of Merocil. After overnight incubation at 37° C., the tumor cells kill was determined by MTT assay.
Each cell type (1×10^6 cells/ml; in triplicate) was treated with indicated concentrations of Merocil or Merodantoin. After overnight (20 hr.) or 5 day incubation periods, the cell viability was determined by MTT assay and calculated as a percentage of untreated controls.

[2] = test system: L1210 mouse leukemia cells; test: Combined effect on L1210 mouse leukemia cells (MTT assay); conditions: MC = 12.5 μg/ml; MD = 25 μg/ml; MZ = 25 μg/ml; overnight
Method: The biological activities of the photooxidation products of MC 540 were determined. Preactivated MC 540 is abbreviated as pMC 540. Assays of antitumor activities of the products were carried out according to published standard methods.
Mouse leukemia L1210 cells (1 × 10^6 cells/ml) were treated wit
different combinations of the indicated compounds (isolated from
preactivated merocyanine 540). After overnight incubation the cell kill

[3] = Cytotoxicity on normal human peripheral blood mononuclear cells (trypan blue dye exclusion); format: cell-based; conditions: human, peripheral blood mononuclear cells, overnight, 37° C., read-out: % cell kill (mean ± S.E.M.)
Method: (§1) Preactivated MC 540 is abbreviated as pMC 540.
(§2) Merocil and Merodantoin were dissolved in cremophor EL whereas pMC 540 was prepared in 10% aqueous ethanol. […] Fresh human peripheral mononucleas cells (1×10^6 cells/ml) were treated with indicated concentration of compounds. After overnight incubation at 37° C., cell viability was determined by trypan blue dye exclusion method.

[4] = test system: normal human peripheral blood mononuclear cells; test: as above; format: cell-based; conditions: doses of Table 1
Method: as §1, §2

[5] = test system: C-33A (carcinoma cervix, human); test: Inhibition of cell proliferation, C-33A (MTT assay); format: cell-based; conditions: read-out: % inhibition of cell proliferation
Method: (§3) Preactivated MC 540 is abbreviated as pMC 540. […] 52: 831-38 (1990); and T. Mosmann, J. Immulog. Methods 65: 55-63 (1983).
(§4) Each cell type (1×10^6 cells/ml; in triplicate) was treated with indicated concentrations of merocil or merodantoin. After overnight (20 hr.) or 5 day incubation periods, the cell viability was determined by MTT assay and calculated as a percentage of untreated controls. The toxicity in vehicle only (cremophor EL) controls was not detectable at highest dose tested.

[6] = test system: DU 145 (prostate, carcinoma, human); test: Inhibition of cell proliferation, DU 145 (MTT assay); format: cell-based; conditions: read-out: % inhibition of cell proliferation
Method: as §3, §4

[7] = test system: MS 751 (cervix, carcinoma, human); test: Inhibition of cell proliferation, MS 751 (MTT assay); format: cell-based; conditions: read-out: % inhibition of cell proliferation
Method: as §3, §4

[8] = test system: JEG-3 (choriocarcinoma, human); test: Inhibition of cell proliferation, JEG-3 (MTT assay); format: cell-based; conditions: read-out: % inhibition of cell proliferation
Method: as §3, §4

[9] = test system: BT-20 (breast, adenocarcinoma); test: Inhibition of cell proliferation, BT-20 (MTT assay); format: cell-based; conditions: Homo sapiens, read-out: % inhibition of cell proliferation
Source text: Preactivated MC 540 is abbreviated as pMC 540. […] 52: 831-38 (1990); and T. Mosmann, J. Immulog. Methods 65: 55-63 (1983). […]

[10] = test system: H.S. Sultan (multiple myeloma); test: Inhibition of cell proliferation, H.S. Sultan (MTT assay); format: cell-based; conditions: 24 h, read-out: % inhibition of cell proliferation
Method: as §3
(§5) Each cell type (1×10^6 cells/ml; in triplicate) was treated with indicated concentrations of merocil or merodantoin. […] The cytotoxicity in vehicle only (cremophor EL) controls was not detectable at highest dose tested.

8226 (multiple myeloma) = test: Inhibition of cell proliferation, 8226 (MTT assay); format: cell-based; conditions: 24 h, read-out: % inhibition of cell proliferation
Method: as §3, §5

U266B1 (myeloma) = test: Inhibition of cell proliferation, U266B1 (MTT assay); format: cell-based; conditions: 24 h, read-out: % inhibition of cell proliferation
Method: as §3, §5

[11] = test system: human immunodeficiency virus (HIV-1); test: Inactivation of cell free human immunodeficiency virus (viability of MT-4 target cells, MTT assay); format: cell-based
Method: as §3
(§6) Cell free human immunodeficiency virus (HIV-1) was either left untreated or treated with indicated doses of Merocil or Merodantoin for one hour at 37° C. and added to MT-4 target cells. After 4 hour incubation at 37° C., the cells were washed three times and further incubated in drug free fresh growth medium (complete RPMI-1640) at 37° C. for 4 days. On day four, 50% of the culture supernatant was replaced with fresh growth medium to prevent cell death due to possible nutrient depletion. The viability of the cell was determined on day 11 by MTT assay. […] The viability of the MT-4 cells was not affected by Merocil or Merodantoin under the experimental conditions described above.

MT-4 cells = test: Effect on viability of MT-4 cells; format: cell-based; conditions: experimental conditions of Table 8
Method: as §6

certain tumor cells = test: Inhibition of proliferation of tumor cells (overall conclusion); format: cell-based
Source text: as §3

[12] = Homo sapiens, Daudi, read-out: % Cell Kill (means ± S.D.)

`CC1(O)Oc2ccccc2N1CCCS(=O)(=O)O` (centres unmarked) [Meroxazole, 2-Hydroxy-2-methyl-3-[3'-sulfopropyl]-benzoxazolin] showed a cytotoxicity at 25 µg/mL ([1]; Homo sapiens, Daudi, 25 μg/ml, representative experiment, read-out: % Cell Kill) of 0%, a cytotoxicity at 50 µg/mL ([1]; Homo sapiens, Daudi, 50 μg/ml, representative experiment, read-out: % Cell Kill) of 0% and a cytotoxicity at 75 µg/mL ([1]; Homo sapiens, Daudi, 75 μg/ml, representative experiment, read-out: % Cell Kill) of 0%. For the same compound, the cytotoxicity at 100 µg/mL ([1]; Homo sapiens, Daudi, 100 μg/ml, representative experiment, read-out: % Cell Kill) was 0%, the cytotoxicity at 125 µg/mL ([1]; Homo sapiens, Daudi, 125 μg/ml, representative experiment, read-out: % Cell Kill) was 0% and the cytotoxicity at 500 µg/mL ([1]; Homo sapiens, Daudi, 500 μg/ml, representative experiment, read-out: % Cell Kill) was 32%. The “cytotoxicity to Daudi cells (conclusion)” value ([1]; doses of Table 7) was “not cytotoxic” and the “% Cell Kill” value [2] was “Zero”.
Compound `CCCCN1C(=O)C(O)(OC)C(=O)N(CCCC)C1=S` [Merocil, N,N'-Dibutyl-4,5 dihydro-5-hydroxy-5-methoxy-4-oxo-2-thiouracil] has a cytotoxicity ([3]; 0.78 μg/ml) of 2.67 ± 0.8%, a cytotoxicity ([3]; 1.56 μg/ml) of 5 ± 0.67% and a cytotoxicity ([3]; 3.13 μg/ml) of 4 ± 0.67%. The cytotoxicity ([3]; 6.25 μg/ml) was 6%, the cytotoxicity ([3]; 12.5 μg/ml) was 5 ± 0.71% and the “toxicity to normal human peripheral blood mononuclear cells” value [4] was “relatively non-toxic”. For the same compound, the “growth inhibition of cultured Daudi lymphoma cells” value ([1]; 12.5 μg/ml) was “virtually complete growth inhibition”, the cytotoxicity at 0.78 µg/mL [1, 12] was 4.75 ± 3.2% and the cytotoxicity at 1.56 µg/mL [1, 12] was 16.5 ± 9.45%. The cytotoxicity at 3.13 µg/mL [1, 12] was 36.8 ± 16.1%, the cytotoxicity at 6.25 µg/mL [1, 12] was 87.2 ± 9.9% and the cytotoxicity at 12.5 µg/mL [1, 12] was 100%. The inhibition at 0.78 µg/mL ([5]; 20 h) was 2%, the inhibition at 1.56 µg/mL ([5]; 20 h) was 9% and the inhibition at 3.13 µg/mL ([5]; 20 h) was 35%. The inhibition at 6.25 µg/mL ([5]; 20 h) was 36%, the inhibition at 12.5 µg/mL ([5]; 20 h) was 49% and the inhibition at 0.78 µg/mL ([5]; 120 h) was 23%. The inhibition at 1.56 µg/mL ([5]; 120 h) was 26%, the inhibition at 3.13 µg/mL ([5]; 120 h) was 46% and the inhibition at 6.25 µg/mL ([5]; 120 h) was 89%. The inhibition at 12.5 µg/mL ([5]; 120 h) was 97%, the inhibition at 0.78 µg/mL ([6]; DU-145, 20 h) was 0% and the inhibition at 1.56 µg/mL ([6]; DU-145, 20 h) was 0%. For the same compound, the inhibition at 3.13 µg/mL ([6]; DU-145, 20 h) was 0%, the inhibition at 6.25 µg/mL ([6]; DU-145, 20 h) was 5% and the inhibition at 12.5 µg/mL ([6]; DU-145, 20 h) was 3%. It also gave an inhibition at 0.78 µg/mL ([6]; DU-145, 120 h) of 26%, an inhibition at 1.56 µg/mL ([6]; DU-145, 120 h) of 33% and an inhibition at 3.13 µg/mL ([6]; DU-145, 120 h) of 71%. The inhibition at 12.5 µg/mL ([6]; DU-145, 120 h) was 93%, the inhibition at 0.78 µg/mL ([7]; MS751, 20 h) was 1% and the inhibition at 1.56 µg/mL ([7]; MS751, 20 h) was 7%. The inhibition at 3.13 µg/mL ([7]; MS751, 20 h) was 12%, the inhibition at 6.25 µg/mL ([7]; MS751, 20 h) was 20% and the inhibition at 12.5 µg/mL ([7]; MS751, 20 h) was 20%. The inhibition at 0.78 µg/mL ([7]; MS751, 120 h) was 10%, the inhibition at 1.56 µg/mL ([7]; MS751, 120 h) was 11% and the inhibition at 3.13 µg/mL ([7]; MS751, 120 h) was 12%. For the same compound, the inhibition at 6.25 µg/mL ([7]; MS751, 120 h) was 29%, the inhibition at 12.5 µg/mL ([7]; MS751, 120 h) was 89% and the inhibition at 0.78 µg/mL ([8]; JEG-3, 20 h) was 0%. For the same compound, the inhibition at 1.56 µg/mL ([8]; JEG-3, 20 h) was 3%, the inhibition at 3.13 µg/mL ([8]; JEG-3, 20 h) was 32% and the inhibition at 6.25 µg/mL ([8]; JEG-3, 20 h) was 68%. For the same compound, the inhibition at 12.5 µg/mL ([8]; JEG-3, 20 h) was 86%, the inhibition at 0.78 µg/mL ([8]; JEG-3, 120 h) was 8% and the inhibition at 1.56 µg/mL ([8]; JEG-3, 120 h) was 11%. The inhibition at 3.13 µg/mL ([8]; JEG-3, 120 h) was 11%, the inhibition at 6.25 µg/mL ([8]; JEG-3, 120 h) was 51% and the inhibition at 12.5 µg/mL ([8]; JEG-3, 120 h) was 86%. It also gave an inhibition at 0.78 µg/mL ([9]; BT-20, 48 h) of 3%, an inhibition at 1.56 µg/mL ([9]; BT-20, 48 h) of 0% and an inhibition at 3.13 µg/mL ([9]; BT-20, 48 h) of 2%. It also gave an inhibition at 6.25 µg/mL ([9]; BT-20, 48 h) of 0%, an inhibition at 12.5 µg/mL ([9]; BT-20, 48 h) of 11% and an inhibition at 0.78 µg/mL ([9]; BT-20, 96 h) of 11%. It also gave an inhibition at 1.56 µg/mL ([9]; BT-20, 96 h) of 22%, an inhibition at 3.13 µg/mL ([9]; BT-20, 96 h) of 41% and an inhibition at 6.25 µg/mL ([9]; BT-20, 96 h) of 20%. It also gave an inhibition at 12.5 µg/mL ([9]; BT-20, 96 h) of 8%, an inhibition at 0.78 µg/mL [10] of 23% and an inhibition at 1.56 µg/mL [10] of 28%. It also gave an inhibition at 3.13 µg/mL [10] of 24%, an inhibition at 6.25 µg/mL [10] of 63% and an inhibition at 12.5 µg/mL [10] of 68%. It also gave an inhibition at 0.78 µg/mL (8226 (multiple myeloma)) of 17%, an inhibition at 1.56 µg/mL (8226 (multiple myeloma)) of 24% and an inhibition at 3.13 µg/mL (8226 (multiple myeloma)) of 26%. It also gave an inhibition at 6.25 µg/mL (8226 (multiple myeloma)) of 25%, an inhibition at 12.5 µg/mL (8226 (multiple myeloma)) of 55% and an inhibition at 0.78 µg/mL (U266B1 (myeloma)) of 3%. For the same compound, the inhibition at 1.56 µg/mL (U266B1 (myeloma)) was 6%, the inhibition at 3.13 µg/mL (U266B1 (myeloma)) was 21% and the inhibition at 6.25 µg/mL (U266B1 (myeloma)) was 8%. For the same compound, the inhibition at 12.5 µg/mL (U266B1 (myeloma)) was 8%, the “inactivation of cell free HIV” value ([11]; 75 μg/ml dose) was “virtually complete inactivation of the virus” and the “inactivating human immunodeficiency virus (HIV-1)” value ([11]; conclusion) was “effective”. For the same compound, the “viability of the MT-4 cells” value (MT-4 cells) was “not affected”, the “inhibiting the proliferation of certain tumor cells” value (certain tumor cells) was “effective” and the “% Cell Kill” value [2] was 28%.
